ChEMBL document CHEMBL5126535, “Quinoline heterocyclic containing plant and marine candidates against drug-resistant Mycobacterium tuberculosis: A systematic drug-ability investigation” (Eur J Med Chem, 2022)
≈ marks a conversion by molar mass, not a printed value.

tested on: Mycolicibacterium smegmatis; assay: Antibacterial activity against Mycobacterium smegmatis measured after 72 hrs; format: functional; conditions: not given

With C[n+]1cc2c3c(ccc2c2ccc4cc5c(cc4c21)OCO5)OCO3 [SANGUINARIUM] the MIC was 24.5 µg/mL.

tested on: Mycobacterium tuberculosis; assay: Antibacterial activity against Mycobacterium tuberculosis H37Rv ATCC 27294 incubated for 5 days by Alamar blue staining method; format: functional; conditions: H37Rv ATCC 27294, 120 h, time 5 day

In the case of COc1cc2c(cc1OC)-c1c3c(cc4ccnc(c14)C2=O)OCO3 [DICENTRINONE], the MIC is reported as 50 µg/mL (≈ 149 µM).

tested on: Mycolicibacterium fortuitum; assay: Antibacterial activity against Mycobacterium fortuitum ATCC 6841 measured after 24 hrs; format: functional; conditions: not given

Compared with Cn1c2c3ccccc3nc-2c(-c2c3nc4ccccc4c-3n(C)c3ccccc23)c2ccccc21 [BISCRYPTOLEPINE], Cn1c2nc3ccccc3c-2cc2ccccc21 [NEOCRYPTOLEPINE] is 5-fold higher in MIC: 6.25 µg/mL (≈ 13.5 µM) for the first, 31 µg/mL (≈ 133 µM) for the second.

tested on: Mycobacterium tuberculosis; assay: Antibacterial activity against Mycobacterium tuberculosis; format: functional, organism-based; conditions: not given

Compared with O=C1c2c(O)ccnc2-c2nccc3c2c1nc1ccccc13, O=C1c2cccnc2-c2nccc3c2c1nc1ccccc13 [ASCIDIDEMIN] is lower in MIC: over 12.6 µg/mL for the first, 0.01 µg/mL (≈ 0.0353 µM) for the second.

Compared with COc1cc2c(cc1OC)-c1cc(CC(C)=O)c3cc4c(cc3c1N(C)C2)OCO4, COc1ccc2c(c[n+](C)c3c4cc5c(cc4ccc23)OCO5)c1OC [CHELERYTHRINE] is 2-fold lower in MIC: 6.25 µg/mL (≈ 15.4 µM) for the first, 3.1 µg/mL for the second.

First: On1ccc2c3ccccc3nc-2c1C1=CC2(O)CCC/C=C\CCCN3CCC1C1(CC4/C=C\CCCCN4C21)C3 (stereo not drawn)
Second: OC12C=C(c3nccc4c3[nH]c3ccccc34)C3CCN(CCCC/C=C\CC1)CC31CC34CCC(CCCN3C21)O4 (stereo not drawn)
The MIC of the first is 2.2-fold higher: 3.9 µg/mL (≈ 6.91 µM) for the first, 1.77 µg/mL (≈ 3.13 µM) for the second.

Compared with COc1cc2c(cc1O)CCNC21C[S+]([O-])C2c3c(OC(C)=O)c(C)c4c(c3C(COC1=O)N1C(C#N)C3CC5CC(C)C(OC)C(O)C5C(C21)N3C)OCO4 (stereo not drawn), CSc1cnc2c3c(nc4ccccc4c13)C(CCNC(C)=O)=CC2=O [ISODIPLAMINE] is 3.9-fold higher in MIC: 1.6 µg/mL (≈ 2.02 µM) for the first, 6.18 µg/mL (≈ 17 µM) for the second.

Compared with CSC1=C(CCNC(C)=O)c2nc3ccccc3c3ccnc(c23)C1=O [DIPLAMINE], O=C1c2scnc2-c2nccc3c2c1nc1ccccc13 [KUANONIAMINE A] is 2-fold lower in MIC: 6.18 µg/mL (≈ 17 µM) for the first, 3.1 µg/mL (≈ 10.7 µM) for the second.

Compared with CC(=O)NCCc1c2c3c(ccnc3c3ncsc13)-c1ccccc1N2 [KUANONIAMINE D], CC(=O)NCCc1c2c(c3nccc4c3c1Nc1ccccc1-4)OCS2 [LISSOCLINIDINE] is 2-fold lower in MIC: 12.2 µg/mL (≈ 34 µM) for the first, 6.18 µg/mL (≈ 17 µM) for the second.

With CC(=O)NCCc1c2c(c3nccc4c3c1Nc1ccccc1-4)NC(=O)CS2 [SHERMILAMINE B] the MIC was 12.5 µg/mL (≈ 32 µM).

tested on: Mycobacterium tuberculosis; assay: Antibacterial activity against Mycobacterium tuberculosis measured after 14 days; format: functional; conditions: 336 h, time 14 day

Compared with Cn1c(=O)ccc2ccccc21, CN1c2ccccc2CCC1CCc1ccc2c(c1)OCO2 (stereo not drawn) is 4-fold lower in MIC: 25 µg/mL (≈ 157 µM) for the first, 6.25 µg/mL (≈ 21.2 µM) for the second.

CCCCCc1cc(OC)c2ccccc2n1 and COc1ccc(CCc2cc(OC)c3ccccc3n2)cc1OC are the same in MIC: 6.25 µg/mL (≈ 27.3 µM) for the first, 6.25 µg/mL (≈ 19.3 µM) for the second.

COc1ccc2cc1-c1cc(ccc1O)CC1NCCc3cc4c(cc31)Oc1c(c(OC)cc3c1C(C2)N(C)CC3)O4 (stereo not drawn) and COc1ccc2cc1-c1cc(ccc1O)CC1c3cc4c(cc3CCN1C)Oc1c(OC)cc3c(c1O4)C(C2)N(C)CC3 (stereo not drawn) are the same in MIC: 3.1 µg/mL (≈ 5.51 µM) for the first, 3.1 µg/mL (≈ 5.38 µM) for the second.

COc1ccc(CCC2CCc3ccccc3N2C)cc1OC (stereo not drawn) and COc1cc(CCc2ccc3c(c2)OCO3)nc2ccccc12 [CUSPARINE] are within 1.5-fold of each other in MIC: 6 µg/mL (≈ 19.3 µM) for the first, 6.25 µg/mL (≈ 20.3 µM) for the second.

Going from COC(=O)C1=C2Nc3ccccc3C23CCN2C(O)C4(CC5CC67CC(=O)OC6CCN6CCC8(c9cccc(OC)c9N(C4)C58)C67)C4OCCC4(C1)C23 (stereo not drawn) to COc1ccc2cc1Oc1ccc(cc1)CC1NCCc3cc(OC)c(cc31)Oc1c(OC)c(OC)cc3c1C(C2)N(C)CC3 (stereo not drawn), the MIC falls from 4 µg/mL (≈ 5.46 µM) to 0.25 µg/mL (≈ 0.411 µM) (16-fold).

Work on COc1ccc2c(c1)c(-c1c3c4c(cc5c(c4c4ccc(OC)cc14)OCO5)CCN3)c1c3c(cc4c(c32)OCO4)CCN1 [BIDEBILINE E] yielded an MIC of 6.25 µg/mL (≈ 10.7 µM).

tested on: Mycobacterium tuberculosis; assay: Antibacterial activity against Mycobacterium tuberculosis H37Ra ATCC 25177 assessed as no visible mycobacterial growth incubated for 7 to 8 days by light microscope based spectrophotometric analysis; format: functional; conditions: time 7-8 day

COc1c(O)ccc2c1cnc1c3cc4c(cc3ccc21)OCO4 [DECARINE] gave an MIC of 3.1 µg/mL (≈ 9.71 µM).

tested on: Mycobacterium tuberculosis; assay: Antibacterial activity against Mycobacterium tuberculosis H37Rv ATCC 27294 by broth microdilution based microplate Alamar blue staining method; format: functional; conditions: not given

CC(=O)C[C@H]1CC2C(C3c4[nH]c5ccccc5c4CCN31)C(O)C13CC/C=C\CCCCN1CC21CC/C=C\CCCCNC13 (stereo partly drawn) and CC(=O)C[C@@H]1CC2C(C3c4[nH]c5ccccc5c4CCN31)C(O)C13CC/C=C\CCCCN1CC21CC/C=C\CCCCNC13 (stereo partly drawn) are within 1.5-fold of each other in MIC: 1.57 µg/mL (≈ 2.57 µM) for the first, 1.9 µg/mL (≈ 3.11 µM) for the second.

tested on: Mycobacterium tuberculosis; assay: Antibacterial activity against Mycobacterium tuberculosis H37Rv ATCC 27294 incubated for 6 weeks by MGIT assay; format: functional; conditions: H37Rv ATCC 27294, 1008 h

In the case of COc1ccc2c3c(c4cc(OC)c(OC)cc4c2c1)CN1CCC[C@H]1C3, the MIC is reported as 12.5 µg/mL (≈ 34.4 µM).

tested on: Mycobacterium tuberculosis; assay: Antibacterial activity against Mycobacterium tuberculosis H37Ra by MABA method; format: functional; conditions: not given

With COc1cccc2c1C(=O)c1nccc3cc4c(c-2c13)OCO4 [OXOSTEPHANINE] the MIC was 25 µg/mL (≈ 81.9 µM).

tested on: Mycolicibacterium aurum; assay: Antibacterial activity against Mycobacterium aurum measured after 72 hrs; format: functional; conditions: not given

C[n+]1cc2c3c(ccc2c2ccc4cc5c(cc4c21)OCO5)OCO3 [SANGUINARIUM] was tested, and the MIC was 24.5 µg/mL.

tested on: Mycobacterium tuberculosis; assay: Antibacterial activity against Mycobacterium tuberculosis H37Ra assessed as inhibition of bacterial growth incubated for 72 hrs by microbroth dilution method; format: functional; conditions: not given

CCCC/C=C\CCCCCCCc1cc(=O)c2ccccc2n1C showed an MIC of 5 µg/mL (≈ 14.7 µM).

tested on: Mycolicibacterium fortuitum; assay: Antibacterial activity against Mycobacterium fortuitum measured after 72 hrs by 96-well microtitre plate assay; format: functional; conditions: not given

C[n+]1c2ccccc2cc2[n-]c3ccccc3c21 [CRYPTOLEPINE] gave an MIC of 16 µg/mL (≈ 68.9 µM).

tested on: Mycobacterium tuberculosis; assay: Antibacterial activity against Mycobacterium tuberculosis incubated for 5 days by Alamar blue staining method; format: functional; conditions: 120 h, time 5 day

Going from COc1cc(-c2ccccc2)nc2ccccc12 to Cc1ccnc2c1C(=O)c1ccccc1C2=O [CLEISTOPHOLINE], the MIC rises from 6.25 µg/mL (≈ 26.6 µM) to 12.5 µg/mL (≈ 56 µM) (2-fold).

Going from COc1ccc2c(c1OC)C(OC)N(C)c1c-2ccc2cc3c(cc12)OCO3 (stereo not drawn) to COc1cc2c(c3c1-c1ccc4cc5c(cc4c1N(C)C3OC)OCO5)OCO2 (stereo not drawn), the MIC rises from 12.5 µg/mL (≈ 32.9 µM) to 25 µg/mL (≈ 63.5 µM) (2-fold).

COc1cc2c(c3c[n+](C)c4c5cc6c(cc5ccc4c13)OCO6)OCO2 and COc1cc2c3c(OC)cc4c(c3c[n+](C)c2c2cc3c(cc12)OCO3)OCO4 are the same in MIC: 12.5 µg/mL for the first, 12.5 µg/mL for the second.

In the case of COc1cc2c[n+](C)c3c4cc5c(cc4ccc3c2cc1OC)OCO5 [NITIDINE], the MIC is reported as 12.5 µg/mL.
